Source: patent US20060069132A1, “Azolecarboxamide herbicides” (priority 2004, published 2006)
Read-outs that look alike come from different tables or passages of the source.

What was measured:
[1] = tested on: rice; test: Test B flooded paddy test; type: in vivo, Oryza sativa; conditions: Oryza sativa, 336 h, 1000 g ai/ha, scale 0 to 100 (0 no effect, 100 complete control), read-out: Rice plant response rating
Method in brief: (§1)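 Paddy species grown to the 2-leaf stage under flooding; blackgrass sprayed postemergence at 2–18 cm (1- to 4-leaf stage). Plants kept in a greenhouse for 13 to 15 days, then visually rated against controls on 0 (no effect) to 100 (complete control).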

[2] = tested on: small flower umbrella sedge; test: Test B flooded paddy test; type: in vivo, Cyperus difformis; conditions: Cyperus difformis, 336 h, 1000 g ai/ha, scale 0 to 100 (0 no effect, 100 complete control), read-out: Sedge, Umbrella plant response rating
Method in brief: as §1

[3] = tested on: pigweed; test: Test B pre-/postemergence herbicide test; type: in vivo, Amaranthus retroflexus; conditions: for pest or weed control at 500 g/ha: 500 g ai/ha
Method in brief: (§2)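 Test chemicals in a non-phytotoxic solvent mixture with surfactant were applied preemergence to seeded species and postemergence to plants 2-18 cm tall (1- to 4-leaf stage); rice and barnyardgrass were also tested in a flooded paddy at the 2-leaf stage. Visual rating versus controls after 13-15 days in greenhouse, scale 0 (no effect) to 100 (complete control).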

[4] = tested on: corn; test: Test B pre-/postemergence herbicide test; type: in vivo, Zea mays
Method in brief: as §2

[5] = tested on: large crabgrass; test: Test B pre-/postemergence herbicide test; type: in vivo, Digitaria sanguinalis; conditions: for pest or weed control at 500 g/ha: 500 g ai/ha
Method in brief: as §2

[6] = tested on: velvetleaf; test: Test B pre-/postemergence herbicide test; type: in vivo, Abutilon theophrasti
Method in brief: as §2

[7] = tested on: wild oat; test: Test B postemergence herbicide test; type: in vivo, Avena fatua; conditions: Avena fatua, post-emergence, 336 h, read-out: Oat, Wild plant response rating
Method in brief: (§3)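 Scale 0–100: zero equals no visible effect, 100 complete control, judged by eye relative to controls. Timing: 13 to 15 days in greenhouse post-treatment. Growth stage at spraying: two leaves (paddy) or one to four leaves, 2–18 cm (postemergence).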

[8] = tested on: giant foxtail; test: Test B pre-/postemergence herbicide test; type: in vivo, Setaria faberi; conditions: for pest or weed control at 500 g/ha: 500 g ai/ha
Method in brief: as §2

[9] = tested on: wheat; test: Test B postemergence herbicide test; type: in vivo, Triticum aestivum; conditions: Triticum aestivum, post-emergence, 336 h, read-out: Wheat plant response rating
Method in brief: as §3

[10] = tested on: Surinam grass; test: Test B pre-/postemergence herbicide test; type: in vivo, Urochloa decumbens; conditions: for pest or weed control at 500 g/ha: 500 g ai/ha
Method in brief: as §2

[11] = tested on: barnyardgrass; test: Test B pre-/postemergence herbicide test; type: in vivo, Echinochloa crus-galli; conditions: for pest or weed control at 500 g/ha: 500 g ai/ha
Method in brief: as §2

[12] = tested on: blackgrass; test: Test B postemergence herbicide test; type: in vivo, Alopecurus myosuroides; conditions: Alopecurus myosuroides, post-emergence, 336 h, read-out: Blackgrass plant response rating
Method in brief: as §1

[13] = tested on: lambsquarters; test: Test B pre-/postemergence herbicide test; type: in vivo, Chenopodium album; conditions: for pest or weed control at 500 g/ha: 500 g ai/ha
Method in brief: as §2

[14] = tested on: morningglory; test: Test B pre-/postemergence herbicide test; type: in vivo, Ipomoea coccinea; conditions: for pest or weed control at 500 g/ha: 500 g ai/ha
Method in brief: as §2

[15] = tested on: ducksalad; test: Test B flooded paddy test; type: in vivo, Heteranthera limosa; conditions: Heteranthera limosa, 336 h, 1000 g ai/ha, scale 0 to 100 (0 no effect, 100 complete control), read-out: Ducksalad plant response rating
Method in brief: as §1

[16] = 125 g ai/ha, 0 is no effect, 100 is complete control, preemergence
[17] = 125 g ai/ha, visual rating, scale 0 (no effect) to 100 (complete control)
[18] = postemergence, 500 g ai/ha, scale 0 to 100, 0 is no effect, 100 is complete control

With CCn1nc2c(c1C(=O)Nc1cc(C(=O)N(C)C)ccc1F)CCC2(C)C [Compound 352, N-[5-[(dimethylamino)carbonyl]-2-fluorophenyl]-2-ethyl-2,4,5,6-tetrahydro-6,6-dimethyl-3-cyclopentapyrazolecarboxamide] the plant injury at 1000 g/ha [1] was 70%, the pest or weed control at 1000 g/ha [2] was 80% and the “Plant response rating (0 to 100 scale), Pigweed” value [3, 16] was 50. It also gave a pest or weed control at 125 g/ha ([3]; Amaranthus retroflexus, post-emergence, 336 h, 125 g ai/ha, visual rating, scale 0 (no effect) to 100 (complete control), read-out: Pigweed plant response rating) of 10%, a pest or weed control at 500 g/ha ([3]; Amaranthus retroflexus, post-emergence, 336 h, postemergence, scale 0 to 100, 0 is no effect, 100 is complete control, read-out: Pigweed plant response rating) of 60% and a pest or weed control at 500 g/ha ([3]; Amaranthus retroflexus, pre-emergence, 336 h, visual rating, 0 = no effect, 100 = complete control, read-out: Plant response rating, Pigweed) of 70%. The “Plant response rating (0 to 100 scale), Corn” value [4, 16] was 60, the plant injury at 125 g/ha ([4]; Zea mays, post-emergence, 125 g ai/ha, visual rating, scale 0 (no effect) to 100 (complete control), read-out: Corn plant response rating) was 0% and the plant injury at 500 g/ha ([4]; Zea mays, post-emergence, postemergence, 500 g ai/ha, scale 0 to 100, 0 is no effect, 100 is complete control, read-out: Corn plant response rating) was 10%. For the same compound, the Corn plant response rating (crop injury, 0 = no effect, 100 = complete kill) at 500 g/ha ([4]; Zea mays, pre-emergence, 500 g ai/ha, visual rating, 0 = no effect, 100 = complete control) was 80%, the “Plant response rating (0 to 100 scale), Crabgrass, Large” value [5, 16] was 90 and the pest or weed control at 125 g/ha ([5]; Digitaria sanguinalis, post-emergence, 125 g ai/ha, visual rating, scale 0 (no effect) to 100 (complete control), read-out: Crabgrass, Large plant response rating) was 20%. The pest or weed control at 500 g/ha ([5]; Digitaria sanguinalis, post-emergence, postemergence, scale 0 to 100, 0 is no effect, 100 is complete control, read-out: Crabgrass, Large plant response rating) was 20%, the pest or weed control at 500 g/ha ([5]; Digitaria sanguinalis, pre-emergence, visual rating, 0 = no effect, 100 = complete control, read-out: Plant response rating, Crabgrass, Large) was 100% and the “Plant response rating (0 to 100 scale), Velvetleaf” value [6, 16] was 30. It also gave a pest or weed control at 125 g/ha ([6]; Abutilon theophrasti, post-emergence, 336 h, 125 g ai/ha, visual rating, scale 0 (no effect) to 100 (complete control), read-out: Velvetleaf plant response rating) of 10%, a pest or weed control at 500 g/ha ([6]; Abutilon theophrasti, post-emergence, 336 h, postemergence, 500 g ai/ha, scale 0 to 100, 0 is no effect, 100 is complete control, read-out: Velvetleaf plant response rating) of 60% and a pest or weed control at 125 g/ha [7, 17] of 0%. For the same compound, the pest or weed control at 500 g/ha [7, 18] was 20%, the “Plant response rating (0 to 100 scale), Foxtail, Giant” value [8, 16] was 70 and the pest or weed control at 125 g/ha ([8]; Setaria faberi, post-emergence, 336 h, 125 g ai/ha, visual rating, scale 0 (no effect) to 100 (complete control), read-out: Foxtail, Giant plant response rating) was 10%. It also gave a pest or weed control at 500 g/ha ([8]; Setaria faberi, post-emergence, 336 h, postemergence, scale 0 to 100, 0 is no effect, 100 is complete control, read-out: Foxtail, Giant plant response rating) of 30%, a pest or weed control at 500 g/ha ([8]; Setaria faberi, pre-emergence, 336 h, visual rating, 0 = no effect, 100 = complete control, read-out: Plant response rating, Foxtail, Giant) of 100% and a plant injury at 125 g/ha [9, 17] of 10%. For the same compound, the plant injury at 500 g/ha [9, 18] was 20%, the “Plant response rating (0 to 100 scale), Surinam Grass” value [10, 16] was 90 and the pest or weed control at 125 g/ha ([10]; Urochloa decumbens, post-emergence, 125 g ai/ha, visual rating, scale 0 (no effect) to 100 (complete control), read-out: Surinam Grass plant response rating) was 10%. The pest or weed control at 500 g/ha ([10]; Urochloa decumbens, post-emergence, postemergence, scale 0 to 100, 0 is no effect, 100 is complete control, read-out: Surinam Grass plant response rating) was 40%, the pest or weed control at 500 g/ha ([10]; Urochloa decumbens, pre-emergence, visual rating, 0 = no effect, 100 = complete control, read-out: Plant response rating, Surinam Grass) was 100% and the “Plant response rating (0 to 100 scale), Barnyardgrass” value [11, 16] was 70. The pest or weed control at 125 g/ha ([11]; Echinochloa crus-galli, post-emergence, 125 g ai/ha, visual rating, scale 0 (no effect) to 100 (complete control), read-out: Barnyardgrass plant response rating) was 0%, the pest or weed control at 500 g/ha ([11]; Echinochloa crus-galli, post-emergence, postemergence, scale 0 to 100, 0 is no effect, 100 is complete control, read-out: Barnyardgrass plant response rating) was 10% and the pest or weed control at 500 g/ha ([11]; Echinochloa crus-galli, pre-emergence, visual rating, 0 = no effect, 100 = complete control, read-out: Plant response rating, Barnyardgrass) was 90%. The pest or weed control at 125 g/ha [12, 17] was 10%, the pest or weed control at 500 g/ha [12, 18] was 30% and the “Plant response rating (0 to 100 scale), Lambsquarters” value [13, 16] was 90. The pest or weed control at 125 g/ha ([13]; Chenopodium album, post-emergence, 336 h, 125 g ai/ha, visual rating, scale 0 (no effect) to 100 (complete control), read-out: Lambsquarters plant response rating) was 10%, the pest or weed control at 500 g/ha ([13]; Chenopodium album, post-emergence, 336 h, postemergence, scale 0 to 100, 0 is no effect, 100 is complete control, read-out: Lambsquarters plant response rating) was 60% and the pest or weed control at 500 g/ha ([13]; Chenopodium album, pre-emergence, 336 h, visual rating, 0 = no effect, 100 = complete control, read-out: Plant response rating, Lambsquarters) was 100%. The “Plant response rating (0 to 100 scale), Morningglory” value [14, 16] was 0, the pest or weed control at 125 g/ha ([14]; Ipomoea, post-emergence, 336 h, 125 g ai/ha, visual rating, scale 0 (no effect) to 100 (complete control), read-out: Morningglory plant response rating) was 10% and the pest or weed control at 500 g/ha ([14]; Ipomoea, post-emergence, 336 h, postemergence, scale 0 to 100, 0 is no effect, 100 is complete control, read-out: Morningglory plant response rating) was 60%. It also gave a pest or weed control at 500 g/ha ([14]; Ipomoea, pre-emergence, 336 h, visual rating, 0 = no effect, 100 = complete control, read-out: Plant response rating, Morningglory) of 0% and a pest or weed control at 1000 g/ha [15] of 90%.
